Measurements from patent publication US8063071B2 (GlaxoSmithKline, LLC, priority 2007, dated 2011).

What was measured:
[1] = biological target: T1, Recombinant human IKKβ (residues 1-737) (Homo sapiens, UniProt O14920); assay: IKK2 assay (TR-FRET); type: biochemical; details: ATP 1 μM final, read-out: pIC50 against IKK2 (converted)
T1 construct: Recombinant human IKKβ (residues 1-737); GST (C); made in house
T1 sequence (O14920 1-737): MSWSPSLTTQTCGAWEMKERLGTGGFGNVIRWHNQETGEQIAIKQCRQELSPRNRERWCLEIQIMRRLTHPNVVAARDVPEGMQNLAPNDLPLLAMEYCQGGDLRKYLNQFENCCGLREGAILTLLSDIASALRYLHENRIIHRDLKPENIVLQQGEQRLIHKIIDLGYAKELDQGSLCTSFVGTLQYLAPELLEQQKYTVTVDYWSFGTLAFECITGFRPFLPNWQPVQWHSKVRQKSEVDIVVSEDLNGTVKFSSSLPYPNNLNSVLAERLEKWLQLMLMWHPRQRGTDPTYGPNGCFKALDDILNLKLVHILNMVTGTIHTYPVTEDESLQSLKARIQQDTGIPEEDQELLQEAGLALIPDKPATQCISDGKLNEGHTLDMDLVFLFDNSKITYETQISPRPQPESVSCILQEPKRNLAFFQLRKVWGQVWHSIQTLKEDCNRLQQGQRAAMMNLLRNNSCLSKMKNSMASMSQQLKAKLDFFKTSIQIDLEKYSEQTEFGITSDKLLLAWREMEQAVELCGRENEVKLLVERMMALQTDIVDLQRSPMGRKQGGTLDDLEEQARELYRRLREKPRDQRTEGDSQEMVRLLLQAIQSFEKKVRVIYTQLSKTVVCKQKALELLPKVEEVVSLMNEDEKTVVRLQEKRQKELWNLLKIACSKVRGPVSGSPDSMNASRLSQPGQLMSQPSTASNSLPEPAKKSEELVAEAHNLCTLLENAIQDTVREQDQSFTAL
Method in brief: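 Baculovirus-expressed C-terminal GST-tagged IKKβ (0.5-5 nM final) in HEPES pH 7.4, MgCl2, CHAPS, DTT, BSA with 1.7% DMSO; 25 nM GST-IB substrate and 1 μM ATP, 15 min at room temperature. EDTA stop; phospho-Ser32/36 detected by Eu-antibody/APC-anti-GST TR-FRET, 665/620 nm ratio.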

[2] = tested on: human monocyte stimulated cytokine production (TNF-α); assay: Monocyte assay (LPS-stimulated TNF-α production); type: cell-based; details: 24 h, 200 ng/mL LPS, TNF-α by ELISA
Method: Effect of IKK-β inhibition on human monocyte stimulated cytokine production was assessed as follows: Monocytes were isolated from heparinized whole blood by Ficoll gradient, followed by purification of CD14+ cells using MACS magnetic cell separation beads. Isolated monocytes were then adhered to 96-well culture plates at 1×10^6 cells/mL in RPMI 1640 10% FBS (JRH Biosciences, Lenexa Kans.) for 2 h. Test compounds are added to the wells 30 minutes prior to stimulation with a final vehicle concentration of 0.1% DMSO. Monocytes were activated by the addition of 200 ng/mL endotoxin (LPS; E. coli serotype 026:B6)(Sigma, St. Louis, Mo.) and incubated for 24 hrs at 37 C. Cell-free supernates were analyzed by ELISA for TNF-α using Pharmingen matched pair Abs. Viability of the cells was determined by 10% trypan blue exclusion.

| Compound | IC50 [1] [µM] | IC50 [2] [µM] |
| --- | --- | --- |
| CCS(=O)(=O)N1CCC(c2c[nH]c3c(C(N)=O)cc(-c4cccc(CNC5CCCC5)c4)cc23)CC1 [Example 15, 5-{3-[(cyclopentylamino)methyl]phenyl}-3-[1-(ethylsulfonyl)-4-piperidinyl]-1H-indole-7-carboxamide] | ≤ 10 | > 1 |
| CCS(=O)(=O)N1CCC(c2c[nH]c3c(C(N)=O)cc(-c4cccc(CN[C@H]5CC[C@H](O)CC5)c4)cc23)CC1 [Example 20, 3-[1-(ethylsulfonyl)-4-piperidinyl]-5-(3-{[(trans-4-hydroxycyclohexyl)amino]methyl}phenyl)-1H-indole-7-carboxamide] | ≤ 10 | ≤ 1.5 |
| CCS(=O)(=O)N1CCC(c2c[nH]c3c(C(N)=O)cc(-c4cccc(CNC[C@H](C)O)c4)cc23)CC1 [Example 22, 3-[1-(ethylsulfonyl)-4-piperidinyl]-5-[3-({[(2S)-2-hydroxypropyl]amino}methyl)phenyl]-1H-indole-7-carboxamide] | ≤ 10 | ≤ 1.5 |
| CCNCc1cccc(-c2cc(C(N)=O)c3[nH]cc(C4CCN(S(=O)(=O)CC)CC4)c3c2)c1 [Example 23, 5-{3-[(ethylamino)methyl]phenyl}-3-[1-(ethylsulfonyl)-4-piperidinyl]-1H-indole-7-carboxamide] | ≤ 10 | ≤ 1.5 |
| CCCNCc1cccc(-c2cc(C(N)=O)c3[nH]cc(C4CCN(S(=O)(=O)CC)CC4)c3c2)c1 [Example 24, 3-[1-(ethylsulfonyl)-4-piperidinyl]-5-{3-[(propylamino)methyl]phenyl}-1H-indole-7-carboxamide] | ≤ 10 | > 1 |
| CCS(=O)(=O)N1CCC(c2c[nH]c3c(C(N)=O)cc(-c4cccc(CNC(C)C)c4)cc23)CC1 [Example 25, 3-[1-(ethylsulfonyl)-4-piperidinyl]-5-(3-{[(1-methylethyl)amino]methyl}phenyl)-1H-indole-7-carboxamide] | ≤ 10 | ≤ 1.5 |

Results, then the compound that gave them:

| IC50 [1] [µM] | IC50 [2] [µM] | Compound |
| --- | --- | --- |
| ≤ 10 | ≤ 1.5 | CCS(=O)(=O)N1CCC(c2c[nH]c3c(C(N)=O)cc(-c4cccc(CN(C)CC(O)c5ccccc5)c4)cc23)CC1 (stereo not drawn) [Example 12, 3-[1-(ethylsulfonyl)-4-piperidinyl]-5-(3-{[(2-hydroxy-2-phenylethyl)-(methyl)amino]methyl}phenyl)-1H-indole-7-carboxamide] |
| ≤ 10 | ≤ 1.5 | CCN(C)Cc1cccc(-c2cc(C(N)=O)c3[nH]cc(C4CCN(S(=O)(=O)CC)CC4)c3c2)c1 [Example 13, 5-(3-{[ethyl(methyl)amino]methyl}phenyl)-3-[1-(ethylsulfonyl)-4-piperidinyl]-1H-indole-7-carboxamide] |
| ≤ 10 | ≤ 1.5 | CCS(=O)(=O)N1CCC(c2c[nH]c3c(C(N)=O)cc(-c4cccc(CNCc5ccc(O)c(O)c5)c4)cc23)CC1 [Example 16, 5-[3-({[(3,4-dihydroxyphenyl)methyl]amino}methyl)phenyl]-3-[1-(ethylsulfonyl)-4-piperidinyl]-1H-indole-7-carboxamide] |
| ≤ 10 | ≤ 1.5 | CCS(=O)(=O)N1CCC(c2c[nH]c3c(C(N)=O)cc(-c4cccc(CNCc5ccsc5)c4)cc23)CC1 [Example 17, 3-[1-(ethylsulfonyl)-4-piperidinyl]-5-(3-{[(3-thienylmethyl)amino]methyl}phenyl)-1H-indole-7-carboxamide] |
| ≤ 10 | ≤ 1.5 | CCS(=O)(=O)N1CCC(c2c[nH]c3c(C(N)=O)cc(-c4cccc(CN[C@@H](CO)C(C)C)c4)cc23)CC1 [Example 18, 3-[1-(ethylsulfonyl)-4-piperidinyl]-5-[3-({[(1R)-1-(hydroxymethyl)-2-methylpropyl]amino}methyl)phenyl]-1H-indole-7-carboxamide] |
| ≤ 10 | ≤ 1.5 | CCS(=O)(=O)N1CCC(c2c[nH]c3c(C(N)=O)cc(-c4cccc(CNC(C)CO)c4)cc23)CC1 (stereo not drawn) [Example 19, 3-[1-(ethylsulfonyl)-4-piperidinyl]-5-(3-{[(2-hydroxy-1-methylethyl)amino]methyl}phenyl)-1H-indole-7-carboxamide] |
